Experimental data from ChEMBL document CHEMBL3399969, “Multifunctional scutellarin-rivastigmine hybrids with cholinergic, antioxidant, biometal chelating and neuroprotective properties for the treatment of Alzheimer's disease” (Bioorg Med Chem, 2015).

Assays:
[1] = Antioxidant activity assessed as trolox equivalent of […]-induced radical scavenging activity by ORAC-FL method; format: physicochemical
[2] = Inhibition of rat serum BuChE using butyrylthiocholine iodide as substrate after 15 mins by Ellman method; format: cell-free
Rattus norvegicus = species: Rattus norvegicus; test: Selectivity index, ratio of IC50 for rat serum BuChE to IC50 for rat cortex AChE; format: cell-free
Acetylcholinesterase = target: T1, Acetylcholinesterase (Rattus norvegicus, UniProt P37136); test: Inhibition of rat cortex AChE using acetylthiocholine iodide as substrate after 15 mins by Ellman method
T1 sequence (P37136 whole entry): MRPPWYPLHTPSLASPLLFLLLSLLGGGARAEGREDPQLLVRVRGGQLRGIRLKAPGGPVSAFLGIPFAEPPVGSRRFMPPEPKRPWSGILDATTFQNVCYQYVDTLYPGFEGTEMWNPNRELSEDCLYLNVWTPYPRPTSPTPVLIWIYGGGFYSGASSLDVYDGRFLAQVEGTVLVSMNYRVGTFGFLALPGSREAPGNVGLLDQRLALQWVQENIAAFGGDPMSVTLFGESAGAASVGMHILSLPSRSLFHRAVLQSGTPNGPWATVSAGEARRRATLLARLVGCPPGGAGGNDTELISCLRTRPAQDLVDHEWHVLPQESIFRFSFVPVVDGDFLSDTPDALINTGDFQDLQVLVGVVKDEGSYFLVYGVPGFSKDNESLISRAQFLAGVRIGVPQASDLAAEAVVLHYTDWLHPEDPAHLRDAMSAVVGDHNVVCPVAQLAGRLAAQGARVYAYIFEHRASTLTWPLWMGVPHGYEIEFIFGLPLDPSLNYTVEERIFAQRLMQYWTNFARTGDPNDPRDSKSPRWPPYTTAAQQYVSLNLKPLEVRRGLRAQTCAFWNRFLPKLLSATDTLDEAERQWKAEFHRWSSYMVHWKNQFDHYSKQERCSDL

PC-12 = test: Neuroprotective effect against H2O2-induced rat PC12 cell injury assessed as cell viability at 10 uM incubated for 2 hrs prior to H2O2 challenge measured after 24 hrs by MTT assay (reference value: 57.6%); format: functional; details: read-out: Activity

Row | SMILES | Activity [1] | IC50 [2] [µM] | Ratio IC50 (Rattus norvegicus) | IC50 (Acetylcholinesterase) [µM] | viability at 10 µM (PC-12) [%]
1 | COc1cc2oc(-c3ccc(OC(=O)N4CCOCC4)cc3)cc(=O)c2c(OC)c1OC | 0.27 | > 100 | > 1.5 | 68.3 | –
2 | COc1cc2oc(-c3cccc(OC(=O)N4CCCCC4)c3)cc(=O)c2c(OC)c1OC | 0.31 | 26.8 | 0.6 | 45.7 | 72.5
3 | COc1cc2oc(-c3ccc(OC(=O)N(C)C)cc3)cc(=O)c2c(OC)c1OC | 0.32 | 7.3 | 0.9 | 8.24 | 73.5
4 | CCN(CC)C(=O)Oc1cccc(-c2cc(=O)c3c(OC)c(OC)c(OC)cc3o2)c1 | 0.31 | 30.1 | 4.9 | 6.11 | 70.8
5 | COc1cc2oc(-c3cccc(OC(=O)N(C(C)C)C(C)C)c3)cc(=O)c2c(OC)c1OC | 0.3 | > 100 | > 1.1 | 87.5 | –
6 | COc1cc2oc(-c3cccc(OC(=O)N4CCN(C)CC4)c3)cc(=O)c2c(OC)c1OC | 0.36 | > 100 | > 3.2 | 31.2 | 82.1
7 | COc1cc2oc(-c3ccc(OC(=O)N4CCOCC4)cc3)cc(=O)c2c(O)c1OC | 0.9 | > 100 | – | > 100 | 66.5
8 | COc1cc2oc(-c3ccc(OC(=O)N4CCN(C)CC4)cc3)cc(=O)c2c(O)c1OC | 1 | > 100 | > 20 | 5 | –
9 | COc1cc2oc(-c3cccc(OC(=O)N4CCOCC4)c3)cc(=O)c2c(OC)c1OC | 0.29 | > 100 | – | > 100 | –
10 | COc1cc2oc(-c3ccc(OC(=O)N4CCN(C)CC4)cc3)cc(=O)c2c(OC)c1OC | 0.29 | 63.8 | 5.6 | 11.4 | 82.4
11 | COc1cc2oc(-c3ccc(OC(=O)N4CCN(Cc5ccccc5)CC4)cc3)cc(=O)c2c(O)c1OC | 0.9 | > 100 | > 10.8 | 9.25 | 84.5
12 | COc1cc2oc(-c3cccc(OC(=O)N(C)C)c3)cc(=O)c2c(O)c1OC | 1.2 | 23.6 | 0.9 | 25.7 | –
13 | COc1cc2oc(-c3cccc(OC(=O)N4CCN(C)CC4)c3)cc(=O)c2c(O)c1OC | 1.2 | 68.2 | 2.9 | 23.3 | –
14 | COc1cc2oc(-c3ccc(OC(=O)N4CCCCC4)cc3)cc(=O)c2c(O)c1OC | 1.1 | > 100 | > 5.6 | 17.8 | 79.6
15 | CCN(C)C(=O)Oc1cccc(-c2cc(=O)c3c(OC)c(OC)c(OC)cc3o2)c1 | 0.32 | 38.1 | 5.2 | 7.37 | 70.8
16 | COc1cc2oc(-c3cccc(OC(=O)N4CCCCC4)c3)cc(=O)c2c(O)c1OC | 1.1 | > 100 | – | > 100 | –
17 | COc1cc2oc(-c3ccc(OC(=O)N(C)C)cc3)cc(=O)c2c(O)c1OC | 1.2 | 61.5 | 3.6 | 17.3 | 76.7

Row | SMILES | Activity [1] | IC50 [2] [µM] | Ratio IC50 (Rattus norvegicus) | IC50 (Acetylcholinesterase) [µM] | viability at 10 µM (PC-12) [%]
18 | COc1cc2oc(-c3ccc(O)cc3)cc(=O)c2c(O)c1OC [CIRSIMARITIN] | 5.4 | > 100 | – | > 100 | –
19 | CCN(C)C(=O)Oc1ccc(-c2cc(=O)c3c(OC)c(OC)c(OC)cc3o2)cc1 | 0.34 | 6.2 | 4 | 1.54 | 75.1
20 | COc1cc2oc(-c3cccc(OC(=O)N(C)C)c3)cc(=O)c2c(OC)c1OC | 0.28 | 28.3 | 0.8 | 37.3 | 69.3
21 | COc1cc2oc(-c3ccc(OC(=O)N(C(C)C)C(C)C)cc3)cc(=O)c2c(OC)c1OC | 0.33 | 38.2 | 2.8 | 13.7 | –
22 | COc1cc2oc(-c3cccc(OC(=O)N4CCN(Cc5ccccc5)CC4)c3)cc(=O)c2c(OC)c1OC | 0.34 | 7.1 | 0.1 | 87.1 | –
23 | COc1cc2oc(-c3ccc(OC(=O)N4CCN(Cc5ccccc5)CC4)cc3)cc(=O)c2c(OC)c1OC | 0.32 | 37.2 | 35.8 | 1.04 | 81.9
24 | COc1cc2oc(-c3ccc(OC(=O)N(C(C)C)C(C)C)cc3)cc(=O)c2c(O)c1OC | 1 | > 100 | – | > 100 | 68.7
25 | COc1cc2oc(-c3cccc(O)c3)cc(=O)c2c(O)c1OC | 3.7 | > 100 | – | > 100 | –
26 | COc1cc2oc(-c3cccc(OC(=O)N4CCN(Cc5ccccc5)CC4)c3)cc(=O)c2c(O)c1OC | 1.3 | 15.7 | 0.3 | 51.7 | 80.3
27 | COc1cc2oc(-c3ccc(OC(=O)N4CCCCC4)cc3)cc(=O)c2c(OC)c1OC | 0.31 | 15.3 | 0.7 | 21.2 | 65.2
28 | CCN(C)C(=O)Oc1cccc(-c2cc(=O)c3c(O)c(OC)c(OC)cc3o2)c1 | 0.9 | > 100 | > 6.8 | 14.8 | –
29 | COc1cc2oc(-c3cccc(OC(=O)N4CCOCC4)c3)cc(=O)c2c(O)c1OC | 1.2 | > 100 | – | > 100 | 66.1
30 | COc1cc2oc(-c3cccc(O)c3)cc(=O)c2c(OC)c1OC | 1.8 | > 100 | – | > 100 | –
31 | CCN(C)C(=O)Oc1ccc(-c2cc(=O)c3c(O)c(OC)c(OC)cc3o2)cc1 | 1.1 | 38.1 | 18.1 | 2.1 | 78.3
32 | COc1cc2oc(-c3cccc(OC(=O)N(C(C)C)C(C)C)c3)cc(=O)c2c(O)c1OC | 1.1 | > 100 | > 1 | 96.5 | –
33 | CCN(CC)C(=O)Oc1cccc(-c2cc(=O)c3c(O)c(OC)c(OC)cc3o2)c1 | 1.3 | 34.5 | 3.3 | 10.3 | –
34 | COc1cc2oc(-c3ccc(O)cc3)cc(=O)c2c(OC)c1OC | 2.6 | > 100 | – | > 100 | –
